Experimental data published in patent US20240148744A1 (Celgene Corporation, priority 2021, published 2024).

Tests used:
Dirofilaria immitis = experiment: Heartworm screen Dirofilaria immitis (stage DiMF/DiL4 not specified in the tables); type: cell-based; conditions: read-out: D. immitis Activity class
[1] = test system: Onchocerca gutturosa adult male worms; experiment: Onchocerca gutturosa in vitro screening model: adult worm motility score and MTT/formazan viability; type: cell-based; conditions: read-out: O. gutt Activity class

| Compound | IC50 (Dirofilaria immitis) | IC50 [1] |
| --- | --- | --- |
| Cc1cccnc1S(=O)(=O)Nc1cccc2c(C(F)(F)F)ccnc12 [Compound 13, 3-methyl-N-(4-(trifluoro-methyl)quin-olin-8-yl)pyr-idine-2-sulfonamide] | 0.2 to 0.5 µM | < 0.2 µM |
| COc1ccnc2c(NS(=O)(=O)c3ncccc3C)cccc12 [Compound 14, N-(4-meth-oxyquinolin-8-yl)-3-meth-ylpyridine-2-sulfonamide] | 0.5 to 5 µM | 0.5 to 5 µM |
| Cc1cccnc1S(=O)(=O)Nc1cccc2c(C)ccnc12 [Compound 15, 3-methyl-N-(4-methyl-quinolin-8-yl)pyridine-2-sulfonamide] | 0.5 to 5 µM | < 0.2 µM |
| Cc1cccnc1S(=O)(=O)Nc1c(OCC2CC2)ccc2cccnc12 [Compound 16, N-(7-(cyclo-propylmeth-oxy)quinolin-8-yl)-3-meth-ylpyridine-2-sulfonamide] | < 0.2 µM | 0.5 to 5 µM |
| Cc1cccnc1S(=O)(=O)Nc1c(C2CC2)ccc2cccnc12 [Compound 17, N-(7-cyclo-propylquin-olin-8-yl)-3-methylpyr-idine-2-sulfonamide] | 0.2 to 0.5 µM | 0.2 to 0.5 µM |
| Cc1cccnc1S(=O)(=O)Nc1c(N2CCOCC2)ccc2cccnc12 [Compound 18, 3-methyl-N-(7-morpho-linoquinolin-8-yl)pyridine-2-sulfonamide] | 0.2 to 0.5 µM | 0.2 to 0.5 µM |
| Cc1cccnc1S(=O)(=O)Nc1cccc2cc(N3CCOCC3)cnc12 [Compound 21, 3-methyl-N-(3-morpho-linoquinolin-8-yl)pyridine-2-sulfonamide] | 0.5 to 5 µM | < 0.2 µM |
| Cc1cccnc1S(=O)(=O)Nc1cccc2ccc(C3CC3)nc12 [Compound 26, N-(2-cyclo-propylquin-olin-8-yl)-3-methylpyr-idine-2-sulfonamide] | 0.5 to 5 µM | 0.5 to 5 µM |
| Cc1cccnc1S(=O)(=O)Nc1cccc2c(C3CC3)ccnc12 [Compound 27, N-(4-cyclo-propylquin-olin-8-yl)-3-methylpyr-idine-2-sulfonamide] | 0.5 to 5 µM | 0.5 to 5 µM |
| Cc1cccnc1S(=O)(=O)Nc1cccc2c(OCC3CC3)ccnc12 [Compound 28, N-(4-(cyclo-propylmeth-oxy)quinolin-8-yl)-3-meth-ylpyridine-2-sulfonamide] | 0.5 to 5 µM | 0.5 to 5 µM |
| Cc1cccnc1S(=O)(=O)Nc1cccc2cc(C3CC3)cnc12 [Compound 29, N-(3-cyclo-propylquin-olin-8-yl)-3-methylpyr-idine-2-sulfonamide] | 0.5 to 5 µM | 0.5 to 5 µM |
| Cc1cccnc1S(=O)(=O)Nc1cccc2c(-c3ccccc3)ccnc12 [Compound 30, 3-methyl-N-(4-phenyl-quinolin-8-yl)pyridine-2-sulfonamide] | 0.5 to 5 µM | 0.5 to 5 µM |
| Cc1cc(NS(=O)(=O)c2nccn2C(C)C)c2ncccc2c1 [Compound 35] | 0.2 to 0.5 µM | 0.2 to 0.5 µM |
| CCn1ccnc1S(=O)(=O)Nc1ccc(S(C)(=O)=O)c2cccnc12 [Compound 294, 1-ethyl-N-(5-(methylsulfonyl)quinolin-8-yl)-1H-imidazole-2-sulfonamide] | 0.2 to 0.5 µM | – |
| O=S(=O)(Nc1cc(F)cc2cccnc12)c1nccn1-c1ccc(C(F)(F)F)cc1 [Compound 295, N-(6-fluoroquinolin-8-yl)-1-(4-(trifluoromethyl)phenyl)-1H-imidazole-2-sulfonamide] | < 0.2 µM | – |
| O=S(=O)(Nc1ccc(-c2ccc(F)cc2)c2cccnc12)c1nccn1CC(F)(F)F [Compound 296, N-(5-(4-fluorophenyl)quinolin-8-yl)-1-(2,2,2-trifluoroethyl)-1H-imidazol-2-sulfonamide] | < 0.2 µM | – |
| CCn1ccnc1S(=O)(=O)Nc1cc(C(=O)c2ccccc2)cc2cccnc12 [Compound 297, N-(6-benzoylquinolin-8-yl)-1-ethyl-1H-imidazole-2-sulfonamide] | 0.2 to 0.5 µM | – |
